Drawing on patent publication US8871753B2, “Macrocyclic compounds and their use as kinase inhibitors” (Incyte Corporation, priority 2008, dated 2014), this text covers IC50 for 17 compounds.

Holding throughout (assay type): biochemical
In assay [1] the target is T1, human JAK1 (a.a. 837-1142) (Homo sapiens, UniProt P23458).
T1 construct: human JAK1 (a.a. 837-1142); His tag (N); made in house; host or cells: insect cells (baculovirus)
Description: In vitro JAK kinase assay (HTRF, phosphorylation of a biotinylated peptide), JAK1. The following applies: read-out: JAK1 IC50. Summed up: (§1)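 Kinase reactions ran at room temperature for 1 h with ATP matched per isoform (JAK1 90 μM, JAK2 30 μM, JAK3 3 μM). After an EDTA stop, the phosphorylated biotin-peptide was read by HTRF using Eu-Py20 and SA-APC after 40 min binding.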
In general terms: In TR-FRET formats the signal depends on donor and acceptor labels being close together.

Assay [2] has as its target T2, human JAK2 (a.a. 828-1132) (Homo sapiens, UniProt O60674).
T2 construct: JAK2 (a.a. 828-1132); His tag (N); made in house; host or cells: insect cells (baculovirus)
Description: In vitro JAK kinase assay (HTRF, phosphorylation of a biotinylated peptide), JAK2. In outline:
as §1

In assay [3] the target is TYK2 (Homo sapiens, UniProt P29597). Description: TYK2 kinase inhibition (Table A1).
The target in assay [4] is T3, human JAK3 (a.a. 781-1124) (Homo sapiens, UniProt P52333).
T3 construct: JAK3 (a.a. 781-1124); His tag (N); made in house; host or cells: insect cells (baculovirus)
Description: In vitro JAK kinase assay (HTRF, phosphorylation of a biotinylated peptide), JAK3. In outline: as §1

Structures can show the parent of a compound that is named as a salt. Where two headings read alike, the source gives them in different places.

T1 sequence (P23458 849-1154): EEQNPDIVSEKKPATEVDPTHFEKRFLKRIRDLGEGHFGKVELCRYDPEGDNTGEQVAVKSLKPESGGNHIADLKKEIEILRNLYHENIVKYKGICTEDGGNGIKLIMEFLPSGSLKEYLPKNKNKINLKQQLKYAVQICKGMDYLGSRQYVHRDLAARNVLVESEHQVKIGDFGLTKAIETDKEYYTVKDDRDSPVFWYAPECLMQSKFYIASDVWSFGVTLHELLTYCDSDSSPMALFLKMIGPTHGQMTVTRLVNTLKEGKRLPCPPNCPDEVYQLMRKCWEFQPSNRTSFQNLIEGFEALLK
T2 sequence (O60674 828-1132): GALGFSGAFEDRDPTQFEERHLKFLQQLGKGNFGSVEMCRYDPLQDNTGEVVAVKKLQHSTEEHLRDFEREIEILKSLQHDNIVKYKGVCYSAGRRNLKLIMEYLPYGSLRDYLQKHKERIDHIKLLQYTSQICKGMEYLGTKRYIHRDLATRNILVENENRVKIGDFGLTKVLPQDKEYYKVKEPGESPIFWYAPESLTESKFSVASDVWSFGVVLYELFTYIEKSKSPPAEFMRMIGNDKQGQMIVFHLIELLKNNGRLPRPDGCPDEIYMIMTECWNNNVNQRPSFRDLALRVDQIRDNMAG
T3 sequence (P52333 781-1124): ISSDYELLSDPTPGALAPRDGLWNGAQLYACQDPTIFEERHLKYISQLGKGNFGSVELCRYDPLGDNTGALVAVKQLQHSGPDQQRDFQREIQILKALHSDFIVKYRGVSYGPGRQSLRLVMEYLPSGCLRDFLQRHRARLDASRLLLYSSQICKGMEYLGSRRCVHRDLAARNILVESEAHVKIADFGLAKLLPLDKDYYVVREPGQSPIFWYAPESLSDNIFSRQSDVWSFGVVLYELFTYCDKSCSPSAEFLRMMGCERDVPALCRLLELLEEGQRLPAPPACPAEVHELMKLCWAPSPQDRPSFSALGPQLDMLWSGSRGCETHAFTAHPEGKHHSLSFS
TYK2, sequence (P29597 whole entry): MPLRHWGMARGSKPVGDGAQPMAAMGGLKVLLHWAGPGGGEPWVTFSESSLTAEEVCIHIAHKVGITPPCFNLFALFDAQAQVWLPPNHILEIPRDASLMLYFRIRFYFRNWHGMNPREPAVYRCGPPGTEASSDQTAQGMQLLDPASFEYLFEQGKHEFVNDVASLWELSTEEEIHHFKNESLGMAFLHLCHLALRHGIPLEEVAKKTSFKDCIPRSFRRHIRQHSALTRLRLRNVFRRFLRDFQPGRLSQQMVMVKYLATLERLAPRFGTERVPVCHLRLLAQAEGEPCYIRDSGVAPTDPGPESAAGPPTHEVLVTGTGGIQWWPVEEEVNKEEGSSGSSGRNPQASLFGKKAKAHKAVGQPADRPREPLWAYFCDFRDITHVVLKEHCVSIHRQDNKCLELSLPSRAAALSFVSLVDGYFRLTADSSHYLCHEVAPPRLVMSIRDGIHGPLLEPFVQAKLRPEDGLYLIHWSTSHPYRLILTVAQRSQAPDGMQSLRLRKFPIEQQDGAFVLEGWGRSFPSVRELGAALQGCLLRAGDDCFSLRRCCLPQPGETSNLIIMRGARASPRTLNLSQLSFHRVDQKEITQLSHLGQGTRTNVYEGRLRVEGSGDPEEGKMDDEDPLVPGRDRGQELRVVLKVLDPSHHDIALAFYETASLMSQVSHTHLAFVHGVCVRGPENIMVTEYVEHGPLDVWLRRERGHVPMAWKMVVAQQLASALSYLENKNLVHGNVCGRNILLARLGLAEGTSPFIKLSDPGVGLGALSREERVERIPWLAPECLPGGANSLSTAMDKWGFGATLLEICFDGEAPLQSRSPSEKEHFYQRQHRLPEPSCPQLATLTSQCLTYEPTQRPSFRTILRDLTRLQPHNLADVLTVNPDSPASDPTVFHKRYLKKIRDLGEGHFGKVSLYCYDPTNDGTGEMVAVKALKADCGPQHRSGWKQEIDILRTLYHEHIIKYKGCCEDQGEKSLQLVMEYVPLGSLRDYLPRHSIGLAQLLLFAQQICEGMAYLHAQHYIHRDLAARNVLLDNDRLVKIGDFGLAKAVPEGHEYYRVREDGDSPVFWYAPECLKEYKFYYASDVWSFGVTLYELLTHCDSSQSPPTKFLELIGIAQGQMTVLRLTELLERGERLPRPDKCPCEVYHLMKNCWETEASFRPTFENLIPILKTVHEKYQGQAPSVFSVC

On to `N#Cc1ccc(N2CCN(C(=O)COc3ccc4cc3CCc3cncc(c3)Nc3ncc(Cl)c(n3)N4)CC2)cc1` [Example D236, 4-[4-({[6-Chloro-2,4,8,18,22-pentaazatetracyclo[14.3.1.1(3,7).1(9,13)]docosa-1(20),3(22),4,6,9(21),10,12,16,18-nonaen-12-yl]oxy}acetyl)piperazin-1-yl]benzonitrile tris(trifluoroacetate)], for which the 50% inhibitory concentration (IC50) (as a rule, the concentration at which inhibition is half-maximal) in assay [1] (Table D1) is 90 nM; in assay [2] (Table D1), 288 nM; in assay [3] (Table D1) it was more than 400 nM; in assay [4] (Table D1), more than 400 nM.
In the case of `O=C(COc1ccc2cc1CCc1cncc(c1)Nc1ncc(Cl)c(n1)N2)N1CCN(Cc2cccnc2)CC1` [Example D255, 6-Chloro-12-{2-oxo-2-[4-(pyridin-3-ylmethyl)piperazin-1-yl]ethoxy}-2,4,8,18,22-pentaazatetracyclo[14.3.1.1(3,7).1(9,13)]docosa-1(20),3(22),4,6,9(21),10,12,16,18-nonaene tris(trifluoroacetate)], the IC50 in assay [1] (Table D1) is 90 nM; in assay [2] (Table D1), 226 nM; in assay [3] (Table D1) it was more than 400 nM; in assay [4] (Table D1), more than 400 nM.
For the compound `Cc1cc(C(=O)N2CCC(COc3ccc4cc3CCc3cncc(c3)Nc3ncc(Cl)c(n3)N4)CC2)no1` [Example D226, 6-Chloro-12-({1-[(5-methylisoxazol-3-yl)carbonyl]piperidin-4-yl}methoxy)-2,4,8,18,22-pentaazatetracyclo[14.3.1.1(3,7).1(9,13)]docosa-1(20),3(22),4,6,9(21),10,12,16,18-nonaene bis(trifluoroacetate)], the IC50 was 255 nM in assay [1] (Table D1), more than 400 nM in assay [2] (Table D1), more than 400 nM in assay [3] (Table D1) and more than 400 nM in assay [4] (Table D1).
`Cc1ncsc1CCC(=O)Nc1ccc2cc1CCc1cccc(c1)Nc1ncc(Cl)c(n1)N2` [Example C48, N-[6-Chloro-2,4,8,22-tetraazatetracyclo[14.3.1.1(3,7).1(9,13)]docosa-1(20),3(22),4,6,9(21),10,12,16,18-nonaen-12-yl]-3-(4-methyl-1,3-thiazol-5-yl)propanamide trifluoroacetate]: the half-maximal inhibitory concentration (IC50) was 52 nM in assay [1], 74 nM in assay [2], 647 nM in assay [3] and 1150 nM in assay [4].
As for `O=C(COc1ccc2cc1CCc1cncc(c1)Nc1ncc(Cl)c(n1)N2)N1CCN(C(=O)C2CCCO2)CC1` (centres unmarked) [Example D272, 6-Chloro-12-{2-oxo-2-[4-(tetrahydrofuran-2-ylcarbonyl)piperazin-1-yl]ethoxy}-2,4,8,18,22-pentaazatetracyclo[14.3.1.1(3,7).1(9,13)]docosa-1(20),3(22),4,6,9(21),10,12,16,18-nonaene bis(trifluoroacetate)], the IC50 in assay [1] (Table D1) was 38 nM; in assay [2] (Table D1), 288 nM; in assay [3] (Table D1), more than 400 nM; in assay [4] (Table D1) it was more than 400 nM.
As for `O=S(=O)(c1ccccc1F)N1CCC(CCNc2ccc3cc2CCc2cncc(c2)Nc2ncc(Cl)c(n2)N3)CC1` [Example D221, 6-Chloro-N-(2-{1-[(2-fluorophenyl)sulfonyl]piperidin-4-yl}ethyl)-2,4,8,18,22-pentaazatetracyclo[14.3.1.1(3,7).1(9,13)]docosa-1(20),3(22),4,6,9(21),10,12,16,18-nonaen-12-amine tris(trifluoroacetate)], the half-inhibitory concentration (IC50) in assay [1] (Table D1) was 20 nM; in assay [2] (Table D1), 70 nM; in assay [3] (Table D1), 59 nM; in assay [4] (Table D1), more than 400 nM.
As to `Cc1ccnc(N2CCN(C(=O)COc3ccc4cc3CCc3cncc(c3)Nc3ncc(Cl)c(n3)N4)CC2)c1` [Example D237, 6-Chloro-12-{2-[4-(4-methylpyridin-2-yl)piperazin-1-yl]-2-oxoethoxy}-2,4,8,18,22-pentaazatetracyclo[14.3.1.1(3,7).1(9,13)]docosa-1(20),3(22),4,6,9(21),10,12,16,18-nonaene tris(trifluoroacetate)], the IC50 in assay [1] (Table D1) is 29 nM; in assay [2] (Table D1) it was 180 nM; in assay [3] (Table D1), more than 400 nM; in assay [4] (Table D1) it was more than 400 nM.
Regarding `Clc1cnc2nc1Nc1ccc(OCC3CCNC3)c(c1)CCc1cncc(c1)N2` (centres unmarked) [Example C55, 6-Chloro-12-(pyrrolidin-3-ylmethoxy)-2,4,8,18,22-pentaazatetracyclo[14.3.1.1(3,7).1(9,13)]docosa-1(20),3(22),4,6,9(21),10,12,16,18-nonaene trihydrochloride], the IC50 in assay [1] is 96 nM; in assay [2] it was more than 400 nM; in assay [3] it was more than 400 nM; in assay [4], more than 400 nM.
Regarding `O=C(COc1ccc2cc1CCc1cncc(c1)Nc1ncc(Cl)c(n1)N2)N1CCC(c2cc(-c3cccs3)[nH]n2)CC1` [Example D257, 6-Chloro-12-(2-oxo-2-{4-[5-(2-thienyl)-1H-pyrazol-3-yl]piperidin-1-yl}ethoxy)-2,4,8,18,22-pentaazatetracyclo[14.3.1.1(3,7).1(9,13)]docosa-1(20),3(22),4,6,9(21),10,12,16,18-nonaene tris(trifluoroacetate)], the IC50 was 63 nM in assay [1] (Table D1), 112 nM in assay [2] (Table D1), more than 400 nM in assay [3] (Table D1) and more than 400 nM in assay [4] (Table D1).
`O=C(Nc1ccccc1)N1CCC(COc2ccc3cc2CCc2cncc(c2)Nc2ncc(Cl)c(n2)N3)C1` (centres unmarked) [Example C59, 3-({[6-Chloro-2,4,8,18,22-pentaazatetracyclo[14.3.1.1(3,7).1(9,13)]docosa-1(20),3(22),4,6,9(21),10,12,16,18-nonaen-12-yl]oxy}methyl)-N-phenylpyrrolidine-1-carboxamide bis(trifluoroacetate)]: the IC50 was 102 nM in assay [1], more than 400 nM in assay [2], 371 nM in assay [3] and more than 400 nM in assay [4].
Turning to `O=C(Nc1cccc(N2CCOCC2)n1)N1CCC(CCOc2ccc3cc2CCc2cncc(c2)Nc2ncc(Cl)c(n2)N3)CC1` [Example D176, 4-(2-{[6-Chloro-2,4,8,18,22-pentaazatetracyclo[14.3.1.1(3,7).1(9,13)]docosa-1(20),3(22),4,6,9(21),10,12,16,18-nonaen-12-yl]oxy}ethyl)-N-(6-morpholin-4-ylpyridin-2-yl)piperidine-1-carboxamide tris(trifluoroacetate)], the IC50 is 124 nM in assay [1] (Table D1), 208 nM in assay [2] (Table D1), more than 400 nM in assay [3] (Table D1) and more than 400 nM in assay [4] (Table D1).
As to `CC(C)(C)NC(=O)N1CCN(c2ccc3cc2CCc2cccc(c2)Nc2ncc(Cl)c(n2)N3)CC1` [Example D84, N-(tert-Butyl)-4-[6-chloro-2,4,8,22-tetraazatetracyclo[14.3.1.1(3,7).1(9,13)]docosa-1(20),3(22),4,6,9(21),10,12,16,18-nonaen-12-yl]piperazine-1-carboxamide bis(trifluoroacetate)], the IC50 in assay [1] (Table D1) was 21 nM; in assay [2] (Table D1), 7.3 nM; in assay [3] (Table D1), 45 nM; in assay [4] (Table D1), 37 nM.
Regarding `O=C(CC1CN(C(=O)c2nccs2)C1)Nc1ccc2cc1CCc1cncc(c1)Nc1ncc(Cl)c(n1)N2` [Example D145, N-[6-Chloro-2,4,8,18,22-pentaazatetracyclo[14.3.1.1(3,7).1(9,13)]docosa-1(20),3(22),4,6,9(21),10,12,16,18-nonaen-12-yl]-2-[1-(1,3-thiazol-2-ylcarbonyl)azetidin-3-yl]acetamide bis(trifluoroacetate)], the IC50 was 31 nM in assay [1] (Table D1), 123 nM in assay [2] (Table D1), 775 nM in assay [3] (Table D1) and more than 1000 nM in assay [4] (Table D1).
For the compound `O=C(Cc1nnn[nH]1)Nc1ccc2cc1CCc1cccc(c1)Nc1ncc(Cl)c(n1)N2` [Example C31, N-[6-Chloro-2,4,8,22-tetraazatetracyclo[14.3.1.1(3,7).1(9,13)]docosa-1(20),3(22),4,6,9(21),10,12,16,18-nonaen-12-yl]-2-(1H-tetrazol-5-yl)acetamide trifluoroacetate], the IC50 is 140 nM in assay [1], 24 nM in assay [2], 481 nM in assay [3] and 404 nM in assay [4].
Take `O=C(COc1ccc2cc1CCc1cncc(c1)Nc1ncc(Cl)c(n1)N2)N1CCN(Cc2ccncc2)CC1` [Example D256, 6-Chloro-12-{2-oxo-2-[4-(pyridin-4-ylmethyl)piperazin-1-yl]ethoxy}-2,4,8,18,22-pentaazatetracyclo[14.3.1.1(3,7).1(9,13)]docosa-1(20),3(22),4,6,9(21),10,12,16,18-nonaene tris(trifluoroacetate)]: the half-maximal inhibitory concentration (IC50) in assay [1] (Table D1) was 150 nM; in assay [2] (Table D1) it was 217 nM; in assay [3] (Table D1), more than 400 nM; in assay [4] (Table D1), more than 400 nM.
On to `O=C(Cc1csc2ccccc12)Nc1ccc2cc1CCc1cccc(c1)Nc1ncc(Cl)c(n1)N2` [Example C35, 2-(1-Benzothien-3-yl)-N-[6-chloro-2,4,8,22-tetraazatetracyclo[14.3.1.1(3,7).1(9,13)]docosa-1(20),3(22),4,6,9(21),10,12,16,18-nonaen-12-yl]acetamide trifluoroacetate], for which the IC50 in assay [1] is 232 nM; in assay [2] it was 203 nM; in assay [3] it was 549 nM; in assay [4], more than 10000 nM.
As for `N#CC1(C(=O)N2CCN(C(=O)COc3ccc4cc3CCc3cncc(c3)Nc3ncc(Cl)c(n3)N4)CC2)CC1` [Example D267, 1-{[4-({[6-Chloro-2,4,8,18,22-pentaazatetracyclo[14.3.1.1(3,7).1(9,13)]docosa-1(20),3(22),4,6,9(21),10,12,16,18-nonaen-12-yl]oxy}acetyl)piperazin-1-yl]carbonyl}cyclopropanecarbonitrile bis(trifluoroacetate)], the IC50 in assay [1] (Table D1) was 84 nM; in assay [2] (Table D1), 300 nM; in assay [3] (Table D1), more than 400 nM; in assay [4] (Table D1), more than 400 nM.
